Several values for one entry are separate records, joined by “and”; a condition that tells them apart may be missing. Equal entries are not always repeated.
Legend:
[1] = target: T1, cyclooxygenase (Ovis aries, UniProt P05979); assay: RSVM-CO: Ram Seminal Vesicle Microsomal Cyclooxygenase assay; type: biochemical; details: for inhibition at 0.01 µg/mL: 0.01 μg/ml; for inhibition at 0.1 µg/mL: 0.1 μg/ml; for inhibition at 1 µg/mL: 1 μg/ml; for inhibition at 10 µg/mL: 10 μg/ml
T1 construct: Ram seminal vesicular glands were trimmed of fat; from tissue; host or cells: ram seminal vesicular glands, microsomal pellet (105K xg)
T1 sequence (P05979 25-600): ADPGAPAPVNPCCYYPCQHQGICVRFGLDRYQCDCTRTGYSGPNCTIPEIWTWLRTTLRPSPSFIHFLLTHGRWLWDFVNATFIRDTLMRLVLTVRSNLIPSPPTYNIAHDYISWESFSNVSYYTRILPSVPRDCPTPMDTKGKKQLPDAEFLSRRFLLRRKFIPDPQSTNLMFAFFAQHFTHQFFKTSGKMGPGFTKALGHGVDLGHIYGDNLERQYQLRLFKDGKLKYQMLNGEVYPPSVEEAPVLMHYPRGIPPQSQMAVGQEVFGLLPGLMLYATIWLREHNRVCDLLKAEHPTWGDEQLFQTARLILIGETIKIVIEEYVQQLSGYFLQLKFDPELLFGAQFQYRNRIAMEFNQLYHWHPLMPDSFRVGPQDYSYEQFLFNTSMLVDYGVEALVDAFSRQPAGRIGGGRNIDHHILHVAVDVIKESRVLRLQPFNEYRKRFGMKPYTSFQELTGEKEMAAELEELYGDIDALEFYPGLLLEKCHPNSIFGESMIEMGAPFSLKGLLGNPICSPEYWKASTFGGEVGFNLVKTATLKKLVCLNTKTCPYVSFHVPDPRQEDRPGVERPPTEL
Excerpt: (§1) Two screening methods were employed for the purposes of evaluating the biological activities of the compounds of the present invention. The PMN5LO assay is a direct measure of the capacity to inhibit 5-lipoxygenase. The second protocol, RSVM-CO, is a method of determining inhibition of cyclooxygenase enzyme activity and as such it serves as a negative control.
B. Ram Seminal Vesicle Microsomal Cyclooxygenase (RSVM-CO) Assay Protocol
Ram seminal vesicular glands were trimmed of fat, 50 grams diced into 250 mls ice cold 0.1 M potassium phosphate (pH 7.6) buffer and homogenized using a Brinkman Polytron. The suspension was centrifuged 10 minutes at […] (4° C.) and the supernatant filtered through two cheesecloth layers. The filtrate was centrifuged 160 minutes at 105K xg, the supernatant thereof discarded, and the pellet surface rinsed with a small volume of buffer. The pellets were combined in a small volume, briefly homogenized with the Polytron and frozen in 0.5 ml aliquots at -80° C. The protein concentration was about 50 mg/ml.
The thawed enzyme was diluted 1:63 with 0.125 M Na EDTA (pH 8.0) containing 50 μg/ml BSA. A substrate-cofactor premix was prepared with 66 μM ^14 C-arachidonic acid (about 20K cpm/12.5 μl) in 500 μl 0.125 M Na EDTA (pH 8.0) plus 10 μl 50 mM hydroquinone and 10 μl 200 mM glutathione. To each sample well in the 96 well plate, agents dissolved in 0.5 μ DMSO were added, followed by 12.5 μl of the diluted enzyme. After a 4 minute preincubation at room temperature, 12.5 μl of the substrate-cofactor mix was added to start the reaction. The reaction was terminated after 20 minutes at room temperature by adding 25 μl of methanol containing 200 μg PGE2 and 400 μg AA per ml.
The entire reaction mixture was spotted onto a preadsorbent silica gel GF thin layer plate and, after air drying 45 minutes, developed 12 cm in ethyl acetate:glacial acetic acid (99:1).
The developed lanes were scanned for the distribution of radiolabel using a Bioscan Imaging Detector and the integrated peaks compared to standards and controls yielding % inhibition.

[2] = target: T2, 5-lipoxygenase (Rattus norvegicus, UniProt P12527); assay: PMN5LO assay: inhibition of LTB4 production in A23187-stimulated rat peritoneal PMN (RIA); type: cell-based; details: for IC50: estimated concentration required for 50% inhibition
T2 construct: endogenous in cells; host or cells: casein-elicited peritoneal polymorphonuclear leukocytes of male Sprague-Dawley rats
T2 sequence (P12527 1-673): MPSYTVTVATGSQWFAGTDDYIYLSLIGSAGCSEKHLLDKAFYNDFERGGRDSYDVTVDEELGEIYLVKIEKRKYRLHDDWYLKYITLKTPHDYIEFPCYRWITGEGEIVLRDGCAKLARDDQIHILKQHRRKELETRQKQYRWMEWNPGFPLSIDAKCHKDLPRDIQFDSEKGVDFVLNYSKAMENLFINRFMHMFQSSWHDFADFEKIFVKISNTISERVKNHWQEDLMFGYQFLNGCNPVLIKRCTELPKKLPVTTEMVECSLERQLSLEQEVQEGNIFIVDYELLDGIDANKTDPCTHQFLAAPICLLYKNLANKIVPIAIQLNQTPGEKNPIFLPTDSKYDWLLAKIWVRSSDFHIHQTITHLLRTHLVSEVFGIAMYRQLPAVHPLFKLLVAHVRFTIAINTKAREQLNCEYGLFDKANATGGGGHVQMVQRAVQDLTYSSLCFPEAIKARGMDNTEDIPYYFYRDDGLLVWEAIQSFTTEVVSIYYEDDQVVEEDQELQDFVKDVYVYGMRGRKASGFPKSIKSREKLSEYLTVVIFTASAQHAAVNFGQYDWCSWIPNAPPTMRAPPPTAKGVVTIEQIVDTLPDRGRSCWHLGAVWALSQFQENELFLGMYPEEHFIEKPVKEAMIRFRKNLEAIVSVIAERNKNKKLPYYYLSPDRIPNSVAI
Description: as §1
Elicition of Rat Peritoneal polymorphonuclear leukoytes (PMN)
Male Sprague-Dawley rats (about 350 grams) were injected intraperitoneally the day before use with 8 ml of 12% sodium caseinate. The next day the animals were killed by CO2 asphyxiation and the peritoneal cavity lavaged twice with 20 ml of Hanks balanced salts containing 15 mM HEPES (pH 7.4), 1.4 mM Ca^++ and 0.7 mM Mg^++ (Hepes-Hanks). The suspensions were filtered through plastic mesh and centrifuged at […] for 5 minutes. The cells were resuspended in 50 ml Hepes-Hanks and recentrifuged. The PMN pellets were combined and suspended at 1.25×10^7 cells/ml.
The cell suspension was then diluted 1:10, preincubated 5 minutes at 37° C. and distributed in 200 μl aliquots in the wells of 96 well microtiter plates. The wells had previously received samples of the compounds of the present invention, controls, etc., in 25 μl of 0.001% fatty acidfree BSA in Hepes-Hanks. The plates were incubated 2 minutes at 37° C. and then the cells were stimulated to produce LTB4 by the addition of 25 μl of 100 μM calcium ionophore, designated A23187. After 4 minutes at 37° C. the plates were frozen in dry ice.
Radioimmunoassay (RIA) of LTB4
The frozen plates were thawed to 4° C. and 25 μl aliquots removed to V well plates. Antibody to LTB4 (50 μl) was added and, after 15 minutes at room temperature, 50 μl of ^3 H-LTB4 was added and the plates were stored overnight at 4° C. to allow equilibration. The next day the "free" 3H-LTB4 was removed by adsorption to dextran coated charcoal [90 μl per well of a 4% charcoal suspension with 0.25% Dextran T-70 in 10 mM potassium phosphate (pH 7.3) containing lmM EDTA and 0.25 mM thimerasol] during a 10 minute ice temperature incubation. The charcoal was removed by a 10 minute centrifugation at 200 sg. Aliquots of the supernatant were counted in a Packard 460, analyzed in a Masscomp computer and the data drawn up as % inhibition of LTB4 production.

inhibition at 0.1 µg/mL [1] | PMN5LO % inhibition ([2]; 1 μg/ml) | inhibition at 0.33 µg/mL ([2]; 0.33 μg/ml) | inhibition at 1 µg/mL ([2]; 1 μg/ml) | IC50 [2] | inhibition at 0.012 µg/mL ([2]; 0.012 μg/ml) | inhibition at 0.037 µg/mL ([2]; 0.037 μg/ml) | inhibition at 0.11 µg/mL ([2]; 0.11 μg/ml) | Compound | other results
0% | 74% and 100% |  |  |  |  |  |  | CC(=O)Oc1cc(-c2cccs2)sc1-c1ccccc1 | inhibition at 0.01 µg/mL [1]: 0%; inhibition at 1 µg/mL [1]: 0%; PMN5LO % inhibition ([2]; 0.11 μg/ml): 51% and 100%; PMN5LO % inhibition ([2]; 0.33 μg/ml): 52% and 100%
100% | 97% | 85% | 100% | 650 nM |  |  |  | COc1ccc(-c2sc3c(c2OC(C)=O)CCCC3)cc1 | inhibition at 1 µg/mL [1]: 11%; PMN5LO % inhibition ([2]; 0.33 μg/ml): 88%; IC50 ([2]; unit inferred): 380 nM
 |  |  |  | 2500 nM |  |  |  | COc1ccc(-c2sc3c(c2OC(C)=O)Cc2ccccc2-3)cc1 | PMN5LO % inhibition ([2]; 0.012 μg/ml): 0%; inhibition at 0.37 µg/mL ([2]; 0.37 μg/ml (so in the source)): 42%
 |  | 34% | 79% |  | 15% | 15% | 17% | CC(=O)Oc1cc(-c2ccccc2)sc1-c1ccccc1C | 
 |  | 23% | 38% | 4000 nM | 13% | 0% | 15% | c1ccc(-c2ccc(-c3ccccc3)s2)cc1 | 
 | 33% and 66% | 53% |  |  | 25% | 6% | 36% | CC(=O)Oc1cc(-c2ccccc2)oc1-c1ccccc1 | 
 |  | 19% | 18% |  | 5% | 0% | 1% | CC(=O)Oc1csc(-c2ccccc2)c1 [Compound 1] | 
 |  |  | 53% | ~3000 nM | 22% | 14% | 0% | Oc1c(-c2ccccc2)sc(-c2ccccc2)c1-c1ccccc1 [Compound 2, 3-Hydroxy-2,4,5-triphenylthiophene] | inhibition at 10 µg/mL [1]: 23%; inhibition at 0.3 µg/mL ([2]; 0.3 μg/ml): 0%; inhibition at 10 µg/mL ([2]; 10 μg/ml): 95%
13% |  |  |  | 88 nM and 74 nM | 27% | 57% | 100% | CC(=O)Oc1cc(-c2ccccc2)sc1-c1ccccc1 [Compound 3] | inhibition at 0.01 µg/mL [1]: 13%; inhibition at 1 µg/mL [1]: 8%; inhibition at 10 µg/mL [1]: 29%; PMN5LO % inhibition ([2]; 0.012 μg/ml): 38%; PMN5LO % inhibition ([2]; 0.037 μg/ml): 56%; inhibition at 0.05 µg/mL ([2]; 0.05 μg/ml): 100%
24% | 88% | 98% | 99% | 110 nM | 17% |  |  | Oc1cc(-c2ccccc2)sc1-c1ccccc1 [Compound 4, 3-Hydroxy-2,5-diphenylthiophene] | inhibition at 0.4 µg/mL ([1]; 0.4 μg/ml): 18%; inhibition at 1 µg/mL [1]: 6%; inhibition at 2 µg/mL ([1]; 2 μg/ml): 46%; inhibition at 10 µg/mL [1]: 92%; PMN5LO % inhibition ([2]; 0.012 μg/ml): 11%; PMN5LO % inhibition ([2]; 0.11 μg/ml): 97% and 70%; PMN5LO % inhibition ([2]; 0.33 μg/ml): 85%
 |  |  | 38% |  |  |  |  | CC(=O)Oc1cc(-c2cccc(C(F)(F)F)c2)sc1-c1ccccc1 [Compound 5] | 
 |  |  | 22% |  |  |  |  | CCC(=O)Oc1cc(-c2cccc(C(F)(F)F)c2)sc1-c1ccccc1 [Compound 6] | 
0% | 10% and 0% |  |  | > 3000 nM |  |  |  | CC(=O)Oc1c(-c2ccccc2)sc(-c2ccccc2)c1-c1ccccc1 [Compound 7] | inhibition at 0.01 µg/mL [1]: 0%; inhibition at 1 µg/mL [1]: 12%; inhibition at 5 µg/mL ([1]; 5 μg/ml): 76%
 | 18% |  |  |  |  |  |  | CC(=O)Oc1c(-c2ccccc2)sc(-c2ccccc2)c1-c1ccccc1 [Compound 8] | 
 |  |  | 13% |  |  |  |  | CC(=O)Oc1c(C)sc(-c2ccccc2)c1-c1ccccc1 [Compound 9] | 
60% | 58% | 100% |  | 200 nM | 0% |  |  | COCC(=O)Oc1cc(-c2ccccc2)sc1-c1ccccc1 [Compound 10] | PMN5LO % inhibition ([2]; 0.037 μg/ml): 28% and 51%; PMN5LO % inhibition ([2]; 0.11 μg/ml): 73%; IC50 ([2]; unit inferred): 110 nM
 |  | 100% | 96% | 120 nM | 20% | 46% | 96% | Cc1ccccc1-c1cc(O)c(-c2ccccc2)s1 [Compound 18, 3-Hydroxy-5-(2-methylphenyl)-2-phenylthiophene] | 
 |  | 0% | 0% |  | 0% | 0% | 0% | COc1cc(-c2ccccc2)sc1-c1ccccc1 [Compound 19] | 
 |  |  |  | > 3000 nM |  |  |  | COc1ccc(-c2sc3c(c2OC(C)=O)CCCc2ccccc2-3)cc1 [Compound 20] | 
 |  | 81% | 87% |  | 14% | 19% | 45% | Oc1cc(-c2ccccc2)sc1-c1cccnc1 [Compound 22] | 

From patent publication US4999436A, “Aryl-substituted thiophene 3-ols, derivatives and analogs useful as lipoxgenase inhibitors” (Merck & Co., Inc., priority 1989, dated 1991)
